Assay results: patent publication US20220289794A1, “SYNTHETIC ANTIMICROBIAL PEPTIDES” (priority 2019, published 2022)
Converted amounts (≈) assume the structure as drawn. Non-standard residues stand in square brackets, D forms with d. Residues, ends and D or L forms follow the SMILES beside them. Trp(6-Cl) = N[C@@H](Cc1c[nH]c2cc(Cl)ccc12)C(=O)O; Dip = N[C@H](C(=O)O)C(c1ccccc1)c1ccccc1; 2Nal = N[C@@H](Cc1ccc2ccccc2c1)C(=O)O; d2Nal = N[C@H](Cc1ccc2ccccc2c1)C(=O)O; Dab = NCC[C@H](N)C(=O)O

Experiments:
[1] = system: S. aureus ATCC 29213; settings: ATCC 29213
[2] = system: Pseudomonas aeruginosa (ATCC 27883); settings: ATCC 27883
[3] = system: Methicillin-resistant Staphylococcus aureus MRSA (ATCC BAA-1556); settings: ATCC BAA-1556
[4] = system: human red blood cells; set-up: unit not given beside the values
[5] = system: Escherichia coli (ATCC 25922); settings: ATCC 25922

MIC S. aureus ATCC 29213 [1] [µg/mL] | MIC P. aeruginosa ATCC 27883 [2] [µg/mL] | MIC MRSA ATCC BAA-1556 [3] [µg/mL] | HC50 [4] | MIC E. coli ATCC 25922 [5] [µg/mL] | SMILES
64 (≈ 45.5 µM) | 32 (≈ 22.8 µM) | 128 (≈ 91.1 µM) | 780 | 32 (≈ 22.8 µM) | N=C(N)NCCC[C@@H]1NC(=O)[C@H](CCN)NC(=O)[C@@H](CCCNC(=N)N)NC(=O)[C@H](CCCNC(=N)N)NC(=O)[C@@H](Cc2ccc3ccccc3c2)NC(=O)[C@@H](Cc2ccc3ccccc3c2)NC(=O)[C@H](Cc2c[nH]c3ccccc23)NC(=O)[C@H](CCN)NC(=O)[C@@H](CCCNC(=N)N)NC1=O [IFX-059, c[Arg-arg-Dab-Arg-arg-Dab-Trp-naI-naI]] (cyclo([Dab]R[dR][Dab]W[d2Nal][d2Nal]R[dR]))
6.2 (≈ 4.18 µM) | 50 (≈ 33.7 µM) | 6.2 (≈ 4.18 µM) | 580 | 25 (≈ 16.8 µM) | N=C(N)NCCC[C@@H]1NC(=O)CNC(=O)[C@H](Cc2c[nH]c3ccccc23)NC(=O)[C@H](Cc2c[nH]c3ccccc23)NC(=O)[C@H](Cc2c[nH]c3ccccc23)NC(=O)[C@H](Cc2c[nH]c3ccccc23)NC(=O)CNC(=O)[C@H](CCCNC(=N)N)NC(=O)[C@H](CCCNC(=N)N)NC(=O)[C@H](CCCNC(=N)N)NC1=O [IFX-043] (cyclo(GRRRRGWWWW))
25 (≈ 15.1 µM) | 50 (≈ 30.2 µM) | 25 (≈ 15.1 µM) | 390 | 50 (≈ 30.2 µM) | C[C@@H]1NC(=O)[C@H](C)NC(=O)[C@H](CCCNC(=N)N)NC(=O)[C@H](CCCNC(=N)N)NC(=O)[C@H](CCCNC(=N)N)NC(=O)[C@H](CCCNC(=N)N)NC(=O)[C@H](C)NC(=O)[C@H](C)NC(=O)[C@H](Cc2c[nH]c3ccccc23)NC(=O)[C@H](Cc2c[nH]c3ccccc23)NC(=O)[C@H](Cc2c[nH]c3ccccc23)NC(=O)[C@H](Cc2c[nH]c3ccccc23)NC1=O [IFX-045] (cyclo(AARRRRAAWWWW))
32 (≈ 24.5 µM) | 32 (≈ 24.5 µM) | 32 (≈ 24.5 µM) | 575 | 16 (≈ 12.3 µM) | N=C(N)NCCC[C@@H]1NC(=O)[C@H](CCN)NC(=O)[C@@H](CCCNC(=N)N)NC(=O)[C@H](CCCNC(=N)N)NC(=O)[C@@H](Cc2ccc3ccccc3c2)NC(=O)[C@@H](Cc2ccc3ccccc3c2)NC(=O)[C@H](Cc2c[nH]c3ccccc23)NC(=O)[C@@H](CCCNC(=N)N)NC1=O [IFX-055, c[Arg-arg-Dab-Arg-arg-Trp-naI-naI]] (cyclo([Dab]R[dR]W[d2Nal][d2Nal]R[dR]))
6.2 (≈ 4.27 µM) | 25 (≈ 17.2 µM) | 6.2 (≈ 4.27 µM) | 195 | 25 (≈ 17.2 µM) | N=C(N)NCCC[C@@H]1NC(=O)[C@H](CCCNC(=N)N)NC(=O)[C@H](CCCNC(=N)N)NC(=O)[C@H](C(c2ccccc2)c2ccccc2)NC(=O)[C@H](C(c2ccccc2)c2ccccc2)NC(=O)[C@H](C(c2ccccc2)c2ccccc2)NC(=O)[C@H](CCCNC(=N)N)NC(=O)[C@H](CCCNC(=N)N)NC1=O [IFX-012, c[Arg-Arg-Arg-Arg-Arg-Dip-Dip-Dip]] (cyclo([Dip][Dip][Dip]RRRRR))
6.2 (≈ 5.79 µM) | 25 (≈ 23.3 µM) | 6.2 (≈ 5.79 µM) | 270 | 50 (≈ 46.7 µM) | N=C(N)NCCC[C@@H]1NC(=O)[C@H](CCCNC(=N)N)NC(=O)[C@H](CCCNC(=N)N)NC(=O)[C@H](C(c2ccccc2)c2ccccc2)NC(=O)[C@H](C(c2ccccc2)c2ccccc2)NC(=O)[C@H](CCCNC(=N)N)NC1=O [IFX-010, c[Arg-Arg-Arg-Arg-Dip-Dip]] (cyclo([Dip][Dip]RRRR))
12.5 (≈ 10.6 µM) | >100 | 12.5 (≈ 10.6 µM) | 415 | >100 | NCCCC[C@@H]1NC(=O)[C@H](CCCCN)NC(=O)[C@H](CCCCN)NC(=O)[C@H](C(c2ccccc2)c2ccccc2)NC(=O)[C@H](C(c2ccccc2)c2ccccc2)NC(=O)[C@H](C(c2ccccc2)c2ccccc2)NC(=O)[C@H](CCCCN)NC1=O [IFX-014, c[Lys-Lys-Lys-Lys-Dip-Dip-Dip]] (cyclo([Dip][Dip][Dip]KKKK))
3.1 (≈ 2.06 µM) | 100 (≈ 66.3 µM) | 3.1 (≈ 2.06 µM) | 490 | 100 (≈ 66.3 µM) | N=C(N)NCCC[C@@H]1NC(=O)[C@H](CCCNC(=N)N)NC(=O)[C@H](CCCNC(=N)N)NC(=O)[C@H](Cc2c[nH]c3cc(Cl)ccc23)NC(=O)[C@H](Cc2c[nH]c3cc(Cl)ccc23)NC(=O)[C@H](Cc2c[nH]c3cc(Cl)ccc23)NC(=O)[C@H](Cc2c[nH]c3cc(Cl)ccc23)NC(=O)[C@H](CCCNC(=N)N)NC1=O [IFX-040, c[Arg-Arg-Arg-Arg-6clW-6clW-6clW-6clW]] (cyclo(RRRR[Trp(6-Cl)][Trp(6-Cl)][Trp(6-Cl)][Trp(6-Cl)]))
6.2 (≈ 4.53 µM) | 25 (≈ 18.3 µM) | 6.2 (≈ 4.53 µM) | 600 | 12.5 (≈ 9.13 µM) | N=C(N)NCCC[C@H]1NC(=O)[C@H](Cc2c[nH]c3ccccc23)NC(=O)[C@H](Cc2c[nH]c3ccccc23)NC(=O)[C@H](Cc2c[nH]c3ccccc23)NC(=O)[C@H](Cc2c[nH]c3ccccc23)NC(=O)[C@@H](CCCNC(=N)N)NC(=O)[C@@H](CCCNC(=N)N)NC(=O)[C@@H](CCCNC(=N)N)NC1=O [IFX-036, c[arg-arg-arg-arg-Trp-Trp-Trp-Trp]] (cyclo([dR][dR][dR][dR]WWWW))

Further lines, the compound ahead of its results:

SMILES | MIC S. aureus ATCC 29213 [1] [µg/mL] | MIC P. aeruginosa ATCC 27883 [2] [µg/mL] | MIC MRSA ATCC BAA-1556 [3] [µg/mL] | HC50 [4] | MIC E. coli ATCC 25922 [5] [µg/mL]
N=C(N)NCCC[C@H](NC(=O)[C@H](CCCNC(=N)N)NC(=O)[C@@H](NC(=O)[C@@H](NC(=O)[C@H](CCCNC(=N)N)NC(=O)[C@@H](N)CCCNC(=N)N)C(c1ccccc1)c1ccccc1)C(c1ccccc1)c1ccccc1)C(=O)N[C@H](C(=O)O)C(c1ccccc1)c1ccccc1 [IFX-017-1, NH2-Arg-Arg-Dip-Dip-Arg-Arg-Dip-OH] (H-RR[Dip][Dip]RR[Dip]-OH) | 12.5 (≈ 9.52 µM) | 25 (≈ 19 µM) | 12.5 (≈ 9.52 µM) | 370 | 25 (≈ 19 µM)
N=C(N)NCCC[C@H](NC(=O)[C@@H](NC(=O)[C@@H](NC(=O)[C@H](CCCNC(=N)N)NC(=O)[C@H](CCCNC(=N)N)NC(=O)[C@@H](NC(=O)[C@@H](N)CCCNC(=N)N)C(c1ccccc1)c1ccccc1)C(c1ccccc1)c1ccccc1)C(c1ccccc1)c1ccccc1)C(=O)O [IFX-016-1, NH2-Arg-Dip-Arg-Arg-Dip-Dip-Arg-OH] (H-R[Dip]RR[Dip][Dip]R-OH) | 12.5 (≈ 9.52 µM) | >100 | 25 (≈ 19 µM) | 320 | 25 (≈ 19 µM)
N=C(N)NCCC[C@H](NC(=O)[C@H](CCCNC(=N)N)NC(=O)[C@H](CCCNC(=N)N)NC(=O)[C@H](CCCNC(=N)N)NC(=O)[C@@H](N)CCCNC(=N)N)C(=O)N[C@@H](Cc1ccc2ccccc2c1)C(=O)N[C@@H](Cc1ccc2ccccc2c1)C(=O)N[C@@H](Cc1ccc2ccccc2c1)C(=O)O [IFX-013-1, NH2-Arg-Arg-Arg-Arg-Arg-NaI-NaI-NaI-OH] (H-RRRRR[2Nal][2Nal][2Nal]-OH) | 3.1 (≈ 2.23 µM) | 25 (≈ 18 µM) | 3.1 (≈ 2.23 µM) | 200 | 25 (≈ 18 µM)
N=C(N)NCCC[C@H](NC(=O)[C@H](CCCNC(=N)N)NC(=O)[C@@H](N)CCCNC(=N)N)C(=O)N[C@@H](Cc1c[nH]c2ccccc12)C(=O)N[C@@H](Cc1ccc2ccccc2c1)C(=O)N[C@@H](Cc1ccc2ccccc2c1)C(=O)O [IFX-023-1, NH2-R-R-R-Trp-NaI-NaI-OH] (H-RRRW[2Nal][2Nal]-OH) | 6.2 (≈ 5.81 µM) | 25 (≈ 23.4 µM) | 6.2 (≈ 5.81 µM) | 495 | 12.5 (≈ 11.7 µM)
N=C(N)NCCC[C@H](NC(=O)[C@H](CCCNC(=N)N)NC(=O)[C@@H](N)CCCNC(=N)N)C(=O)N[C@@H](Cc1ccc2ccccc2c1)C(=O)N[C@@H](Cc1ccc2ccccc2c1)C(=O)N[C@@H](Cc1c[nH]c2ccccc12)C(=O)O [IFX-025-1, NH2-R-R-R-NaI-NaI-Trp-OH] (H-RRR[2Nal][2Nal]W-OH) | 12.5 (≈ 11.7 µM) | 50 (≈ 46.8 µM) | 12.5 (≈ 11.7 µM) | 375 | 25 (≈ 23.4 µM)
N=C(N)NCCC[C@H](NC(=O)[C@H](CCCNC(=N)N)NC(=O)[C@@H](N)CCCNC(=N)N)C(=O)N[C@@H](CCCNC(=N)N)C(=O)N[C@H](C(=O)N[C@H](C(=O)N[C@H](C(=O)N[C@H](C(=O)O)C(c1ccccc1)c1ccccc1)C(c1ccccc1)c1ccccc1)C(c1ccccc1)c1ccccc1)C(c1ccccc1)c1ccccc1 [IFX-005-1, NH2-Arg-Arg-Arg-Arg-Dip-Dip-Dip-Dip-OH] (H-RRRR[Dip][Dip][Dip][Dip]-OH) | 6.2 (≈ 4.04 µM) | 50 (≈ 32.6 µM) | 6.2 (≈ 4.04 µM) | 135 | 50 (≈ 32.6 µM)
N=C(N)NCCC[C@H](NC(=O)[C@H](CCCNC(=N)N)NC(=O)[C@@H](N)CCCNC(=N)N)C(=O)N[C@@H](CCCNC(=N)N)C(=O)N[C@H](C(=O)N[C@@H](Cc1c[nH]c2ccccc12)C(=O)N[C@H](C(=O)O)C(c1ccccc1)c1ccccc1)C(c1ccccc1)c1ccccc1 [IFX-027-1, NH2-R-R-R-R-Dip-Trp-Dip-OH] (H-RRRR[Dip]W[Dip]-OH) | 3.1 (≈ 2.43 µM) | 25 (≈ 19.6 µM) | 3.1 (≈ 2.43 µM) | 910 | 12.5 (≈ 9.8 µM)
